The source of these data is US11447500B2, “Thienopyridine derivatives and pharmaceutical composition comprising same” (WELLMARKER BIO CO., LTD., priority 2018, dated 2022).

One experiment has as its target T1, RON kinase (Homo sapiens, UniProt Q04912).
T1 construct: purchased Carna Bioscience
Kind of experiment: RON kinase enzyme inhibitory activity, FRET (TR-FRET) technique. The class given is biochemical. The note with it: 60 min reaction. On the procedure: The enzyme inhibitory activity (IC50) of the thienopyridine derivative was measured using FRET (fluorescence resonance energy transfer) technique. RON kinase (Carna Bioscience) was diluted with a kinase assay buffer (50 mM HEPES pH 7.5, 1 mM EGTA, 10 mM MgCl2, 2 mM DTT, and 0.01% Tween-20) to a concentration of 2× (0.4 nM) the final reaction concentration and the dilution was added to a 384-well plate at 5 μL/well. As sample compounds, the compounds synthesized in the examples of the present invention and the compounds of the comparative examples were used. The sample compounds were respectively dissolved in 100% DMSO to obtain 1 mM stock solutions, which were then subjected to eight 10-fold serial dilutions. The sample compounds were diluted with the kinase assay buffer to a concentration of 4× the final reaction concentration, and the dilutions were added to the 384-well plate at 2.5 μL/well. The plate was incubated at room temperature for 15 minutes. Next, 0.25 M ATP solution (Sigma Aldrich) was diluted with the kinase reaction buffer to a concentration of 4× (60 μM) the final reaction concentration, and a tyrosine peptide substrate (Perkin-Elmer) was diluted therein to a concentration of 4× (400 nM) the final reaction concentration. The dilution was added to the 384-well plate at 2.5 μL/well. Then, the 384-well plate was incubated at room temperature and the reaction was allowed to proceed for 60 minutes. After 60 minutes, EDTA (Sigma Aldrich) was diluted with TR-FRET detection buffer (Perkin-Elmer) to a concentration of 4× (40 mM) the final reaction concentration. A europium-labeled anti-phosphotyrosine antibody (Perkin-Elmer) was diluted in the above EDTA dilution to a concentration of 4× (8 nM) the final reaction concentration to prepare a stop solution of the RON kinase reaction. The stop solution was added to the 384-well plate at 10 μL/well to terminate the reaction, and the plate was incubated at room temperature for 60 minutes. Thereafter, the plate was read on Victor X5 plate reader (Perkin-Elmer). At this time, the excitation wavelength was 340 nm and the emission wavelengths were 620 nm and 665 nm. The IC50 values of the sample compounds were determined using GraphPad Prism™ 5 by expressing the emission energy at 665 nm as a function of the sample compound concentration.
(In general: TR-FRET usually uses a lanthanide donor and a delayed reading to cut background.)

The subject of experiment [1] is RON-activated KM12C colon cancer cell line. Put plainly: Cell killing efficacy, trypan blue exclusion assay, KM12C. The class given is cell-based. The note with it: 48 hours. The procedure: (§1) Two colon cancer cell lines, RON-activated KM12C (80015, KCLB, MEM+10% FBS) and RON-mutated (Δ160) HT-29 (30038, KCLB, RPMI+10% FBS) were prepared in 6-well plates at 5×10^4 cells/well, respectively. After 24 hours, while freshly changing the medium, the sample compounds were added to the wells at a concentration of 1 μM or 5 μM and the plates were allowed to stand for 48 hours.
(§2) As the sample compounds, the compounds synthesized in the examples of the present invention and the compounds of the comparative examples were used.
(§3) After 48 hours, the cell suspensions were collected and centrifuged (1,500 rpm, 4 min.) to obtain the cells, and live cells and dead cells were quantitated (n=2) through a trypan blue (15250-061, Gibco) exclusion assay. The statistical analysis was performed using Excel™ T-test from Microsoft.
(§4) The cell death rates of the compounds of Examples and Comparative Examples were respectively measured and the results are shown in Table 4 as relative ratios to Comparative Example 1.

In experiment [2] the test system is RON-mutated (Δ160) HT-29 colon cancer cell line. Put plainly: Cell killing efficacy, trypan blue exclusion assay, HT-29. The class given is cell-based. The note with it: HT29 cell, 48 hours. On the procedure:
as §1, §2, §3, §4

Structures can show the parent of a compound that is named as a salt.

Broadly, the IC50 is the midpoint of a concentration-inhibition curve. High values mean lower potency, low ones higher potency.

T1 sequence (Q04912 25-1400): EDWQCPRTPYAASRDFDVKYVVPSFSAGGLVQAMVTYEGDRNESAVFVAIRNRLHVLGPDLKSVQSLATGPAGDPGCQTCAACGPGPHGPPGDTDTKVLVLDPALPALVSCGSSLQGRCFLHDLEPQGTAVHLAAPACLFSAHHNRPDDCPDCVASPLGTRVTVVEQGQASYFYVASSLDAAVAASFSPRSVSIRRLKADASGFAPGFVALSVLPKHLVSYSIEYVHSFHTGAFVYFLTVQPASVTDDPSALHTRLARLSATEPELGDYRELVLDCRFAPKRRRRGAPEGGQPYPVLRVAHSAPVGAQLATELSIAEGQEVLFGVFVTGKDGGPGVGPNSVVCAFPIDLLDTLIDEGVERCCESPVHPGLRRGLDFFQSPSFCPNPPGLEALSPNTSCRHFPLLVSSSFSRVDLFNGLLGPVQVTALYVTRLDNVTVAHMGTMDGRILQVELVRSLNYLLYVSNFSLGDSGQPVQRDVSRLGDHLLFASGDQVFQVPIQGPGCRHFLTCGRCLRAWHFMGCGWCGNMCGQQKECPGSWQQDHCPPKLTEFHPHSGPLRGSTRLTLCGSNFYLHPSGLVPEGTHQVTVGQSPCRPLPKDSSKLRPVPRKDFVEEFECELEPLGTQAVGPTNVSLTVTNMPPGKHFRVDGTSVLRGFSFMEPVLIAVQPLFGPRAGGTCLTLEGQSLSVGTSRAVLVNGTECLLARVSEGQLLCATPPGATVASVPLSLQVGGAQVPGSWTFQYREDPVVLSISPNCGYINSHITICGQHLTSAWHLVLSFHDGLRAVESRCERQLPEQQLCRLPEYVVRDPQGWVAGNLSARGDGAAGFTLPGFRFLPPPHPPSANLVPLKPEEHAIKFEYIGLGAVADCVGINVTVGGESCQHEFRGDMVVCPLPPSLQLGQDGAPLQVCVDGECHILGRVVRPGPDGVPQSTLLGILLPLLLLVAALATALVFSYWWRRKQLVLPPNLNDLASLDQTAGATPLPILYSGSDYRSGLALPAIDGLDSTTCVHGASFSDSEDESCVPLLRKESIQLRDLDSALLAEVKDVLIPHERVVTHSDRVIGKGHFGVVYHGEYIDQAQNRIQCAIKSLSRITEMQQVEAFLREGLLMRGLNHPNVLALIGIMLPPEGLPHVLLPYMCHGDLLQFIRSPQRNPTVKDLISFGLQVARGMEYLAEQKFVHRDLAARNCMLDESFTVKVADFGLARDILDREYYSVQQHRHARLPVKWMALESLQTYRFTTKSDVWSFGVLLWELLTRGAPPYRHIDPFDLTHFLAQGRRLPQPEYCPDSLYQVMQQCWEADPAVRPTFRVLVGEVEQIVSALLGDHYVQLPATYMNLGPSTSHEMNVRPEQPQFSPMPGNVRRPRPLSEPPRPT

On RON kinase, `COc1ccc2c(Oc3ccc(NC(=O)c4c(C)n(CC(C)(C)O)n(-c5ccccc5)c4=O)cc3F)ccnc2c1` [Comp. Ex. 2, N-(3-fluoro-4-(7-methoxyquinolin-4-yloxy)phenyl)-1-(2-hydroxy-2-methylpropyl)-5-methyl-3-oxo-2-phenyl-2,3-dihydro-1H-pyrazole-4-carboxamide, reference compound] had an IC50 of 2.89 nM. The “Cell death rate (Relative to Comp. Ex. 1)” value in experiment [1] (1 μM) is recorded as “x 0.38”; in experiment [1] (5 μM) it was “x 0.31”; in experiment [2] (1 μM), “x 0.59”; in experiment [2] (5 μM), “x 0.32”.
The corresponding values for `COCCNCc1ccc(-c2cc3nccc(Oc4ccc(NC(=O)c5c(OC)ccn(-c6ccc(F)cc6)c5=O)cc4F)c3s2)nc1.Cl` [Example 2, N-(3-fluoro-4-{[2-(5-{[(2-methoxyethyl)amino]methyl}pyridin-2-yl)thieno[3,2-b]pyridin-7-yl]oxy}phenyl)-1-(4-fluorophenyl)-4-methoxy-2-oxo-1,2-dihydropyridine-3-carboxamide Hydrochloride] are 0.1 nM, “x 1.33”, “x 0.74”, “x 0.62” and “x 1.15”.
For the compound `COCCNCc1ccc(-c2cc3nccc(Oc4ccc(NC(=O)c5c(OC)ccn(-c6ccccc6)c5=O)cc4F)c3s2)nc1.Cl` [Example 3, N-(3-fluoro-4-{[2-(5-{[(2-methoxyethyl)amino]methyl}pyridin-2-yl)thieno[3,2-b]pyridin-7-yl]oxy}phenyl)-4-methoxy-2-oxo-1-phenyl-1,2-dihydropyridine-3-carboxamide Hydrochloride], inhibition against RON kinase was half-maximal at 0.42 nM (IC50). In addition, the “Cell death rate (Relative to Comp. Ex. 1)” value is “x 0.66” in experiment [1] (1 μM), “x 1.26” in experiment [1] (5 μM), “x 1.80” in experiment [2] (1 μM) and “x 2.22” in experiment [2] (5 μM).
`COCCNCc1ccc(-c2cc3nccc(Oc4ccc(NC(=O)c5cccn(-c6ccc(F)cc6)c5=O)cc4F)c3s2)nc1.Cl` [Example 4, N-(3-fluoro-4-{[2-(5-{[(2-methoxyethyl)amino]methyl}pyridin-2-yl)thieno[3,2-b]pyridin-7-yl]oxy}phenyl)-1-(4-fluorophenyl)-2-oxo-1,2-dihydropyridine-3-carboxamide Hydrochloride] had a half-inhibitory concentration (IC50) against RON kinase of 0.68 nM. In addition, the “Cell death rate (Relative to Comp. Ex. 1)” value in experiment [1] (1 μM) is reported as “x 0.59”; in experiment [1] (5 μM) it was “x 0.80”; in experiment [2] (1 μM) it was “x 3.51”; in experiment [2] (5 μM), “x 3.63”.
Consider `CCOc1ccn(-c2ccc(F)cc2)c(=O)c1C(=O)Nc1ccc(Oc2ccnc3cc(-c4ccc(CNCCOC)cn4)sc23)c(F)c1.Cl` [Example 7, 4-ethoxy-N-(3-fluoro-4-{[2-(5-{[(2-methoxyethyl)amino]methyl}pyridin-2-yl)thieno[3,2-b]pyridin-7-yl]oxy}phenyl)-1-(4-fluorophenyl)-2-oxo-1,2-dihydropyridine-3-carboxamide Hydrochloride], for which the IC50 against RON kinase worked out at 0.28 nM. Also, the “Cell death rate (Relative to Comp. Ex. 1)” value is “x 2.38” in experiment [1] (1 μM), “x 1.32” in experiment [1] (5 μM), “x 2.97” in experiment [2] (1 μM) and “x 2.90” in experiment [2] (5 μM).
At RON kinase, `CCOc1ccn(-c2ccc(Cl)cc2)c(=O)c1C(=O)Nc1ccc(Oc2ccnc3cc(-c4ccc(CNCCOC)cn4)sc23)c(F)c1.Cl` [Example 8, 1-(4-chlorophenyl)-4-ethoxy-N-(3-fluoro-4-{[2-(5-{[(2-methoxyethyl)amino]methyl}pyridin-2-yl)thieno[3,2-b]pyridin-7-yl]oxy}phenyl)-2-oxo-1,2-dihydropyridine-3-carboxamide Hydrochloride] came in with an IC50 of 0.01 nM. The “Cell death rate (Relative to Comp. Ex. 1)” value in experiment [1] (1 μM) is given as “x 0.92”; in experiment [1] (5 μM), “x 1.19”; in experiment [2] (1 μM) it was “x 2.24”; in experiment [2] (5 μM), “x 2.52”.
The corresponding values for `COCCNCc1ccc(-c2cc3nccc(Oc4ccc(NC(=O)c5c(OC)ccn(-c6ccc(F)cc6)c5=O)cc4Cl)c3s2)nc1.Cl` [Example 9, N-(3-chloro-4-{[2-(5-{[(2-methoxyethyl)amino]methyl}pyridin-2-yl)thieno[3,2-b]pyridin-7-yl]oxy}phenyl)-1-(4-fluorophenyl)-4-methoxy-2-oxo-1,2-dihydropyridine-3-carboxamide Hydrochloride] are 0.08 nM, “x 2.26”, “x 2.87”, “x 4.08” and “x 3.53”.
On the same counts, the results for `COCCNCc1ccc(-c2cc3nccc(Oc4ccc(NC(=O)c5c(OC)ccn(-c6ccc(F)cc6)c5=O)cc4)c3s2)nc1.Cl` [Example 11, 1-(4-fluorophenyl)-4-methoxy-N-(4-{[2-(5-{[(2-methoxyethyl)amino]methyl}pyridin-2-yl)thieno[3,2-b]pyridin-7-yl)oxy)phenyl)-2-oxo-1,2-dihydropyridine-3-carboxamide Hydrochloride] are 0.26 nM, “x 0.99”, “x 1.65”, “x 1.16” and “x 0.94”.
On the same counts, the results for `COCCNCc1ccc(-c2cc3nccc(Oc4ccc(NC(=O)c5c(C)cnn(-c6ccccc6)c5=O)cc4F)c3s2)nc1.Cl` [Example 18, N-(3-fluoro-4-{[2-(5-{[(2-methoxyethyl)amino]methyl}pyridin-2-yl)thieno[3,2-b]pyridin-7-yl]oxy}phenyl)-5-methyl-3-oxo-2-phenyl-2,3-dihydropyridazine-4-carboxamide Hydrochloride] are 0.77 nM, “x 0.56”, “x 1.09”, “x 1.33” and “x 1.37”.
For the compound `CCOc1ccn(-c2ccc(F)cc2)c(=O)c1C(=O)Nc1ccc(Oc2ccnc3cc(-c4ccc(CN(C)CCOC)cn4)sc23)c(F)c1` [Example 30, 4-ethoxy-N-(3-fluoro-4-{[2-(5-{[(2-methoxyethyl)(methyl)amino]methyl}pyridin-2-yl)thieno[3,2-b]pyridin-7-yl]oxy}phenyl)-1-(4-fluorophenyl)-2-oxo-1,2-dihydropyridine-3-carboxamide Hydrochloride], on RON kinase, the IC50 was found to be 0.88 nM. In addition, the “Cell death rate (Relative to Comp. Ex. 1)” value in experiment [1] (1 μM) was “x 2.48”; in experiment [1] (5 μM), “x 2.06”; in experiment [2] (1 μM), “x 1.34”; in experiment [2] (5 μM), “x 1.07”.
On RON kinase, `CCOc1ccn(-c2ccc(F)cc2)c(=O)c1C(=O)Nc1ccc(Oc2ccnc3cc(-c4ccc(CN5CCOCC5)cn4)sc23)cc1Cl` [Example 37, N-[2-chloro-4-({2-[5-(morpholinomethyl)pyridin-2-yl]thieno[3,2-b]pyridin-7-yl}oxy)phenyl]-4-ethoxy-1-(4-fluorophenyl)-2-oxo-1,2-dihydropyridine-3-carboxamide Hydrochloride] yielded an IC50 of 10.3 nM.
